Results reported in publication PMC10380841, “Synthesis, Characterization and Cytotoxic Evaluation of New Pyrrolo[1,2-b]pyridazines Obtained via Mesoionic Oxazolo-Pyridazinones” (International Journal of Molecular Sciences, 2023).
“Also recorded” adds a separate entry of the source. Read-outs that look alike come from different tables or passages of the source.

Legend:
[1] = tested on: SK-OV-3 ovary adenocarcinoma cells; assay: MTS cytotoxicity assay, SK-OV-3; assay type: cell-based; conditions: Homo sapiens; SK-OV-3, 400 μM, 24 h; read-out: cell viability
Daphnia magna Straus = assay: Daphnia magna toxicity assay; assay type: in vivo; conditions: for toxicity on Daphnia magna / L% values (lethality): 48 h; for L% values (lethality): all tested concentrations
Experimental: (§1) Young organisms of Daphnia magna were selected according to their size from a parthenogenetic culture maintained in an artificial medium for 24 h before the bioassay. The determination was conducted in tissue culture plates with 12 wells (Greiner Bio-One, Monroe, NC, USA), with 10 organisms in each well, and a final volume of 3 mL per sample [65, 66]. As a negative control, DMSO was used at a concentration of 1%. All compounds were tested at six different concentration levels, ranging from 12.5 to 500 μg/mL. All assessments were performed in duplicate.

[2] = tested on: SK-OV-3 ovary adenocarcinoma cells; assay: MTS cytotoxicity assay, SK-OV-3; assay type: cell-based, human
Experimental: (§2) Therefore, the precursor acids 2a–c and corresponding pyrrolo[1,2-b]pyridazines 5a–c,f were tested for their potential cytotoxic activity. During the assays, increasing concentrations of the compounds, ranging from […], were added for 24 h or 48 h to cancer LoVo, SK-OV-3, MCF-7, and the reference HUVEC cells, previously cultured for 24 h in 96-well flat bottom plates. […] Then, MTS reagent was added, and cells were incubated for 4 h at 37 °C in a 5% CO2 humidified atmosphere. The absorbance values were spectrophotometrically read to a Dynex ELISA reader at λ = […].
(§3) For the evaluation of the in vitro potential anti-proliferative effects of treatments with the new compounds under study against solid tumor-derived cells, several compound-mediated cytotoxicity assays were performed on three adherent tumor standardized cell lines, and normal human endothelial cells, used as control: the MCF-7 human breast adenocarcinoma and SK-OV-3 human ovary adenocarcinoma cell lines were provided from European Collection of Authenticated Cell Cultures (ECACC), while LoVo, human colorectal adenocarcinoma cell line, and HUVEC human umbilical vein endothelial cells were purchased from American Type Culture Collection (ATCC).
(§4) Adherent cells were cultivated in DMEM/F12 medium added with 2 mM L-glutamine and 10% fetal bovine serum, 100 units/mL penicillin, 100 µg/mL streptomycin (Sigma Aldrich, St. Louis, MO, USA) and incubated at 37 °C in 5% CO2 humidified atmosphere. The stock solutions for cell treatments were prepared by dissolving the synthesized compounds in a minimum amount of DMSO. Working dilutions were prepared from the stock solutions in culture medium before each treatment assay. After 24 h, when cell cultures achieved around 70% confluence, treatments were applied for various periods of time with different concentrations of synthesized compounds or oncolytic drugs, used as positive controls.
(§5) Therefore, cell cultures treated with the new compounds or oncolytic drugs for 24 h or 48 h were further subjected to a colorimetric cell viability method, the MTS assay. The absorbance of probes was read, data were calculated, and percentages of cell viability were assessed.
(§6) The evaluation of the compound-induced cytotoxicity was made using the CellTiter 96 Aqueous One Solution Cell Proliferation Assay (Promega, Madison, WI, USA), a reagent that contains both MTS (3-(4,5-dimethylthiazol-2-yl)-5-(3-carboxymethoxyphenyl)-2-(4-sulfophenyl)-2H-tetrazolium, inner salt) and PES ([…], a cationic dye with high chemical stability that binds to MTS and forms a stable solution).
(§7) Briefly, 1.5 × 10^4 cancer or normal cells were cultured in 100 µL/well for 24 h. After the culture supernatants were discarded, cells were treated for additional 24 h or 48 h with increasing concentrations of new compounds or oncolytic drugs. Following the specific treatments, in each well a volume of 20 µL of coloring mixture reagent of MTS and PES was added, and then the plates were incubated with mild agitation every 20 min for 4 h at 37 °C. The color developed during incubation was spectrophotometrically quantified at λ = 492 nm using a Dynex ELISA reader (DYNEX Technologies—MRS, Chantilly, VA, USA).
(§8) Data were expressed as percentages of cell viability of the treated cells, and were calculated and compared to the untreated cells (considered 100% viable), using the formula:Cell viability (%) = (T − B)/(U − B) × 100 where T = absorbance of treated cells, U = absorbance of untreated cells, and B = absorbance of culture medium (blank), for λ = 492 nm.
(§9) The cell viability data were expressed as the mean values ± standard deviations (SD) of three different experiments (n = 3). […] Moreover, a parallel experiment was performed in the absence of cells, with all the concentrations of the compounds being tested for their potential interference with MTS reagents; then, their absorbance values were extracted during calculations.

[3] = tested on: LoVo colon adenocarcinoma cells; assay: MTS cytotoxicity assay, LoVo; assay type: cell-based; conditions: Homo sapiens, read-out: cell viability
[4] = tested on: Triticum vulgare root tips; assay: Microscopic examination of Triticum root tips (mitotic film changes); assay type: in vivo; conditions: 24 h contact
Experimental: Microscopic examination of Triticum vulgare root tips followed the mitotic film changes induced by the tested compounds. Observations were made after 24 h of contact of the caryopses with the test solutions. The study was made in comparison with DMSO control maintained under the same conditions as the samples. To obtain microscopic preparations, sectioning of wheat embryonic roots was carried out at about 5 mm from the tip and stained with dilute […] according to the La Cour procedure. The examination was conducted on a Euromex oxion series 110–240 V/50–60 Hz microscope with digital camera CEMEX 5 DC 5000 C and 40× and 100× lenses with cedar oil immersion (Sigma-Aldrich St. Louis, MO, USA).

[5] = tested on: LoVo colon adenocarcinoma cells; assay: MTS cytotoxicity assay, LoVo; assay type: cell-based, human
Experimental: as §2, §3, §4, §5, §6, §7, §8, §9

Triticum aestivum L. = assay: Triticum test, phytotoxicity (main root length); assay type: in vivo; conditions: Triticum aestivum, 72 h; Triticum root length, 10–1000 µM, measured over three days
Experimental: Phytobiological testing (Triticum test) was performed by the Constantinescu method which consists in determining the maximum active dilution of a compound. Depending on the duration of action, it can influence root elongation and the […] film. […] Embryonic wheat roots were obtained by germinating homogeneous wheat caryopses in Linhart pots. Then the caryopses with a main root length of 1 cm were placed in the test solutions. For the determination of the action of each compound, five dilutions in the concentration range of 10–1000 µM were obtained and 11 caryopses were placed in them. Petri dishes containing 15 mL of diluted solution were kept under constant conditions of temperature (25 °C), and humidity (60%), in the absence of light. […] The results were expressed in comparison with a 1% DMSO control.
Statistical analyses were performed using the computing and programming environment R, R, v. 4.2.1 [68], under Rstudio, v. 2022.07.2+576 “Spotted Wakerobin” for Windows (RStudio, PBC, Boston, 2022), both for the Triticum and Artemia tests. It used a parametric mixed-effects model (R package “lme4”) and a robust mixed-effects model (R package “robustlmm”), in which root length measurements (Triticum) from all three days were used as the dependent variable, whereas compound, concentration and time were treated as fixed effects, with time (day of measurement) also treated as a random effect. Assessing statistical significance for mixed-effects statistical models is controversial and complex, but as a pragmatic way of working, we have estimated p-values using the Kenward–Rogers approximation (R package “sjPlot”). A variety of R base functions and R packages were used to diagnose the regression models (“car” [72], “MASS” [73], and “gvlma” [74]). Mixed boxplot–dotplot plots were generated using the “ggplot2” package.
The “drc” R package was used to estimate IC50 values for the Triticum bioassay by nonlinear modeling. For Triticum, the relationship between root length and concentration was modeled using Weibull functions with 2, 3, or 4 parameters, depending on the data distribution, the models being selected from a range of several models with different functions and parameters, based on the Akaike’s information criterion (AIC).

[6] = Daphnia magna toxicity assay; assay type: in vivo; conditions: Daphnia magna, in vivo; 48 h
Experimental: as §1

[7] = tested on: MCF-7 breast adenocarcinoma cells; assay: MTS cytotoxicity assay, MCF-7; assay type: cell-based, human; conditions: Homo sapiens, MCF7; for viability at 400 µM: MCF-7, 400 μM, 48 h, read-out: cell viability; for IC50: MCF-7, 48 h, read-out: IC50 MCF-7 48 h
Experimental: as §2, §3, §4, §5
as §6, with “solution). The assay is based on the ability of the metabolically active cells to reduce the yellow tetrazolium salt MTS to a compound that is soluble in culture medium, the colored formazan, followed by the spectrophotometric evaluation of its concentration.” for “solution).”
as §7, §8
The cell viability data were expressed as the mean values ± standard deviations (SD) of three different experiments (n = 3). […]

[8] = Homo sapiens, SK-OV-3, 24 h, read-out: IC50 Sk-OV-3 24 h
[9] = Homo sapiens, SK-OV-3, 48 h, read-out: IC50 Sk-OV-3 48 h
[10] = Homo sapiens, 24 h, read-out: IC50 LoVo 24 h
[11] = Homo sapiens, 48 h, read-out: IC50 LoVo 48 h

Row | Structure (SMILES) | viability at 400 µM [1] | toxicity on Daphnia magna (Daphnia magna Straus) | L% values (lethality) (Daphnia magna Straus) | IC50 [2, 8] | IC50 [2, 9] | viability at 400 µM ([3]; 24 h) | viability at 400 µM ([3]; 48 h) | mitotic film / cell changes in root tips ([4]; 1000 μM) | IC50 [5, 10] | IC50 [5, 11] | IC50 (Triticum aestivum L.) | LC50 at 48 h [6] | viability at 100 µM ([3]; 48 h) | viability at 400 µM [7] | IC50 [7] | further results
1 | CCC(C(=O)O)n1nc(-c2ccc(Cl)cc2)ccc1=O (centres unmarked) [Compound 2c, 2-[6-Oxo-3-(4-chlorophenyl)pyridazin-1-yl]butanoic acid] | 88.3% | no toxicity | ND * (all L% values were lower than 30%) | ≥ 400 µM | ≥ 400 µM | 78.2% | 48.1% | disorganized metaphase | ≥ 400 µM | 367 ± 3.7 µM | 553 µM |  |  |  |  | 
2 | CCc1cc(C(=O)OC)c2ccc(-c3ccc(F)cc3)nn12 [Compound 5b, Methyl 7-ethyl-2-(4-fluorophenyl)pyrrolo[1,2-b]pyridazine-5-carboxylate] | 78% | moderate toxicity |  | ≥ 400 µM | ≥ 400 µM | 87.8% | 60.3% | telophase in tropokinesis, normal, or disorganized metaphase | ≥ 400 µM | ≥ 400 µM |  | 463 µM | 79.4% | 89.7% | ≥ 400 µM | 
3 | CCc1cc(C(=O)OC)c2ccc(-c3ccc(Cl)cc3)nn12 [Compound 5c, Methyl 2-(4-chlorophenyl)-7-ethylpyrrolo[1,2-b]pyridazine-5-carboxylate] |  |  | ND ** (all L% values were in range of 30 to 70%, independent of concentration) | ≥ 400 µM | ≥ 400 µM | 68.6% | 61.1% |  | ≥ 400 µM | ≥ 400 µM |  | ~107 µM |  | 88.5% | ≥ 400 µM | 
4 | CCc1cc(C(=O)OC)c2ccc(-c3ccccc3)nn12 [Compound 5a, Methyl 7-ethyl-2-phenylpyrrolo[1,2-b]pyridazine-5-carboxylate] |  |  |  |  |  | 63.5% | 48.5% | telophase with delayed chromosome, wavy cell walls; also recorded: no mitoinhibitory effect | ≥ 400 µM | 304 ± 4.85 µM |  | 46.1 µM | 58.2% |  |  | maximum lethality (L%) (Daphnia magna Straus; 24 h): 40%; viability at 50 µM ([3]; 24 h): 79%; viability at 50 µM ([3]; 48 h): 65.3%; viability at 100 µM ([3]; 24 h): 78.1%; viability at 200 µM ([3]; 200 μM, 48 h): 52.5%; mitotic film / cell changes in root tips ([4]; 100 µM): bridged telophase, disorganized metaphase
5 | CCC(C(=O)O)n1nc(-c2ccc(F)cc2)ccc1=O (centres unmarked) [Compound 2b, 2-[6-Oxo-3-(4-fluorophenyl)pyridazin-1-yl]butanoic acid] |  | no toxicity | ND * (all L% values were lower than 30%) | ≥ 400 µM | ≥ 400 µM | 91% | 81.1% | Mitoinhibition and cells with 1-3 nucleoli | ≥ 400 µM | ≥ 400 µM | 204 µM |  |  |  | ≥ 400 µM | 
6 | N.N.[Cl][Pt][Cl] [CisPt, cisplatin, reference compound] |  |  |  |  |  |  |  |  |  |  |  |  |  |  |  | IC50 ([2]; SK-OV-3, 24 h, read-out: IC50 Sk-OV-3 24 h): 92.2 ± 3.45 µM; IC50 ([2]; SK-OV-3, 48 h, read-out: IC50 Sk-OV-3 48 h): 78.2 ± 4.01 µM; IC50 ([5]; 24 h, read-out: IC50 LoVo 24 h): 79.1 ± 4.75 µM; IC50 ([5]; 48 h, read-out: IC50 LoVo 48 h): 57 ± 0.95 µM
